Experimental findings from patent publication US7060677B1, “Antimicrobial activity of the first cationic cluster of human lactoferrin” (priority 1999, dated 2006) are described below.

Peptide text beside a SMILES is read from it.

Series [1] relates to the various bacteria (L. monocytogenes, antibiotic resistant S. aureus, K. pneumoniae, E. coli). The experiment in a line: Assay for antibacterial activity, statements on the various bacteria together. The class given is cell-based. The settings on record: FIGS. 2A–2D: 7 μM peptide, 1 h at 37° C., NaPB-TSB. The method, then:
Listeria monocytogenes strain EGD. Klebsiella pneumoniae (43816), and Escherichia coli O54 were purchased from the American Type Culture Collection (Rockville, Md.). Antibiotic resistant S. aureus, K. pneumoniae and E. coli were cultured overnight in nutrient broth (Oxoid, Basingstoke, UK) at 37° C., diluted in tryptase soya broth (TSB, Oxoid) and cultured for an additional 2 h in a shaking waterbath at 37° C. L. monocytogenes was cultured overnight in brain heart infusion broth (BHI, Oxoid) at 37° C. diluted and cultured for an additional 2 h in a shaking waterbath at 37° C.
In short, bacteria were washed with phosphate-buffered saline (PBS) (pH 7.4) and diluted to a concentration of approximately 2×10^6 CFU/ml of phosphate-buffered saline (pH 6.0) supplemented with 0.1% (v/v) Tween-20 (hereafter designated as PBS-Tw). […] At various time intervals (range 0–4 h) after incubation at 37° C. the number of viable bacteria was determined microbiologically. As negative controls, bovine serum albumin (BSA; Sigma) or no peptide were included.

Series [2] is described as follows: Pharmacology of 99mTc-labeled hLF and peptides by scintigraphy in infected mice. The protocol: Lactoferrins and related peptides were labeled with ^99mTechnetium (^99mTc) as described (22, 23). Briefly, 10 μl of a peptide solution (1 mg/ml of HAc) was added to 2 μl of an aseptic solution of 0.5 mg of stannous pyrophosphate/ml (Dept. of Clinical Pharmacy and Toxicology. Leiden University Medical Center (LUMC). Leiden. The Netherlands). Immediately thereafter, 4 μl of a solution of 10 mg of KBH4 (crystalline. Sigma) per ml of 0.1 M NaOH was added. After addition of 0.1 ml of ^99mTc-sodium pertechnetate solution (200 MBq/ml. Mallinckrodt Medical BV, Petten, The Netherlands), the mixture was gently stirred at ambient temperature for 30 min and then was ready for use. Quality control of the labeling was performed by RP-HPLC analysis using a Sep-Pak C18 cartridge (Waters, Milford, Mass.) in 20 ml of 0.01 M HAc. After rinsing with 20 ml of 0.01 M HAc, proteins and peptides were eluted with 2 ml of methanol (Sigma).
The mice were placed in supine position on a planar gamma camera (Toshiba GCA 7100/UI. Tokyo, Japan) with both hind legs spread out and fixed with surgical tape. Continuous whole body acquisitions of the mice of each 60 s during the first hour after injection of the tracer were made with the gamma camera, equipped with a low-energy general purpose parallel-hole collimator. […] The energy peak was set at 140 keV with a window of 20%.
(§1) On the scintigrams, anatomically adjusted regions of interest (ROI) were drawn over the various organs and both thighs providing data about clearance of ^99mTc-peptides and accumulation at the site of infection. […] The amount of radioactivity in the heart was corrected for decay and expressed as a percentage of injected dose (% ID).

The test system of another series is bacterial infection. The experiment in a line: Imaging microbial infections with 99mTc-labeled hLF and peptides. The settings on record: as described in Example VI.
Description: The mice were placed in supine position on a planar gamma camera (Toshiba GCA 7100/UI. Tokyo, Japan) with both hind legs spread out and fixed with surgical tape. Continuous whole body acquisitions of the mice of each 60 s during the first hour after injection of the tracer were made with the gamma camera, equipped with a low-energy general purpose parallel-hole collimator. The camera was connected to a computer (GMS 5500 UI, Toshiba) and high-resolution images of the animals were stored as a 256×256 matrix. The energy peak was set at 140 keV with a window of 20%.
as §1

In the case of “hLF(5–11): synthetic fragment of hLF(1–11): residues 5–11 of hLF (SVQWCAV; UniProt P02788 24-30, looked up, fragment)”, in series [1], the “Bactericidal activity of synthetic peptides against the various bacteria (in words)” value is given as “ineffective”. For the compound `CC(C)[C@H](NC(=O)[C@H](CO)NC(=O)[C@H](CCCNC(=N)N)NC(=O)[C@@H](N)CCCNC(=N)N)C(=O)N[C@@H](CCC(N)=O)C(=O)N[C@@H](Cc1c[nH]c2ccccc12)C(=O)N[C@@H](CS)C(=O)N[C@@H](C)C(=O)O` [hLF(4–11)] (H-RRSVQWCA-OH; N-terminus and C-terminus assumed), the “mean t1/2 of removal from the circulation” value (“mean t1/2 of removal” for short) in series [2] (Swiss, mouse, in vivo) is “approximately 1 min”.

On to `CC(C)[C@H](NC(=O)[C@H](CO)NC(=O)[C@H](CCCNC(=N)N)NC(=O)[C@H](CCCNC(=N)N)NC(=O)[C@@H](N)CCCNC(=N)N)C(=O)N[C@@H](CCC(N)=O)C(=O)N[C@@H](Cc1c[nH]c2ccccc12)C(=O)N[C@@H](CS)C(=O)N[C@@H](C)C(=O)O` [hLF(3–11)] (H-RRRSVQWCA-OH; N-terminus and C-terminus assumed), for which the “Accumulation at the site of infection (in words)” value (shortened to “Accumulation at the site”) in the series with bacterial infection is on record as “rapidly accumulate at the site of infection”. Take “hLF(6–11): synthetic fragment of hLF(1–11): residues 6–11 of hLF (VQWCAV; UniProt P02788 25-30, looked up, fragment)”: the “Bactericidal activity of synthetic peptides against the various bacteria (in words)” value in series [1] is given as “ineffective”. Consider `CC(C)[C@H](NC(=O)[C@H](CO)NC(=O)[C@H](CCCNC(=N)N)NC(=O)[C@H](CCCNC(=N)N)NC(=O)[C@H](CCCNC(=N)N)NC(=O)[C@@H](N)CCCNC(=N)N)C(=O)N[C@@H](CCC(N)=O)C(=O)N[C@@H](Cc1c[nH]c2ccccc12)C(=O)N[C@@H](CS)C(=O)N[C@@H](C)C(=O)O` [hLF(2–11)] (H-RRRRSVQWCA-OH; N-terminus and C-terminus assumed), for which the “Accumulation at the site” value in the series with bacterial infection is “rapidly accumulate at the site of infection”. Consider `CC(C)[C@H](NC(=O)[C@H](CO)NC(=O)[C@H](CCCNC(=N)N)NC(=O)[C@H](CCCNC(=N)N)NC(=O)[C@H](CCCNC(=N)N)NC(=O)[C@H](CCCNC(=N)N)NC(=O)CN)C(=O)N[C@@H](CCC(N)=O)C(=O)N[C@@H](Cc1c[nH]c2ccccc12)C(=O)N[C@@H](CS)C(=O)N[C@@H](C)C(=O)O` [hLF(1–11)] (H-GRRRRSVQWCA-OH; N-terminus and C-terminus assumed), for which the “mean t1/2 of removal” value in series [2] (99mTc-labeled, S. aureus infected mice, n=3, radioactivity over the heart in first hour) is approximately 9 min. In the series with bacterial infection, the “Accumulation at the site” value is on record as “rapidly accumulate at the site of infection”. On to `CSCC[C@H](NC(=O)[C@H](CC(N)=O)NC(=O)[C@H](CCCNC(=N)N)NC(=O)[C@H](CCC(N)=O)NC(=O)[C@H](Cc1c[nH]c2ccccc12)NC(=O)[C@H](CCC(N)=O)NC(=O)[C@@H](N)Cc1ccccc1)C(=O)N[C@@H](CCCNC(=N)N)C(=O)N[C@@H](CCCCN)C(=O)N[C@H](C(=O)N[C@@H](CCCNC(=N)N)C(=O)O)C(C)C` [hLF(21–31), reference compound] (H-FQWQRNMRKVR-OH; N-terminus and C-terminus assumed), for which the “mean t1/2 of removal” value in series [2] (Swiss, mouse, in vivo) is listed as approximately 2 min.
